According to article PMC12348107, “Saponins from Oxybasis rubra (L.) S.Fuentes, Uotila & Borsh: Comparative Assessment of Cytotoxic Potential Against a Wide Panel of Cancer Cell Lines” (Molecules, 2025):
Several values for one entry are separate records, joined by “and”; a condition that tells them apart may be missing. Identical values can stand only once. Like-named read-outs stand apart in the source and are kept apart here.

Assays:
[1] = LDH cytotoxicity assay, PNT2; type: cell-based, human; settings: human, PNT2 prostate epithelial cells (normal), PNT2 normal cells, LDH test, read-out: Cytotoxic activity expressed as IC50; for IC50 at 24 h: 24 h incubation; for IC50 at 48 h: 48 h incubation
Method: (§1) The cytotoxic activity was tested on human cancer and normal cell lines, grouped in several panels: skin (malignant melanoma HTB-140, malignant melanoma A375, melanoma WM793, and normal keratinocytes HaCaT), prostate (prostate carcinoma DU-145, prostate carcinoma PC3, and prostate epithelial cells PNT2), thyroid (thyroid carcinoma FTC133, thyroid carcinoma, undifferentiated 8505C), gastrointestinal panel (hepatocellular carcinoma HepG2, colon adenocarcinoma Caco-2, and colon adenocarcinoma HT29), and single line of lung carcinoma A549. Cells were grown at standard conditions (37 °C, 5% CO2, relative humidity) and culture media (DMEM/F12 for PNT2, WM793, HT29, A549; DMEM Low Glucose for DU-145; DMEM High Glucose for A375, HaCaT, A549; MEM with NEAA for Caco-2), supplemented with 10% fetal bovine serum (FBS) and 1% antibiotic solution (10,000 U penicillin and 10 mg streptomycin/mL). All cell lines, cell culture media, and supplements were from Merck (Seelze, Germany).
(§2) Before the experiment, cells were seeded onto 96-well plates for 24 h, at a density of 1.5 × 10^4 cells/ well. Then the tested compounds (5–100 μg/mL) were added and incubated for 24 and 48 h. Cell viability was measured with the lactate dehydrogenase (LDH) assay by Clontech (Clontech, Mountain View, CA, USA), as described previously. The absorbance was measured at 490 nm using a Biotek Synergy microplate reader (BioTek Instruments Inc., Winooski, VT, USA). Cell viability was expressed as a percentage of dead cells. Each experiment was conducted in triplicate. Doxorubicin was used as a reference cytostatic.
(§3) The results were expressed as mean (±SD). Data were analyzed using Statistica v.13.3 (StatSoft, Tulsa, OK, USA). The IC50 values were calculated using OriginPro 2020b (64-bit) 9.7.5.184 (Academic) (OriginLab Corporation, Northampton, MA, USA). One-way analysis of variance (ANOVA) and the post-hoc Tukey multiple comparison test were used. The statistical significance was defined at the probability level of p < 0.05. Principal component analysis (PCA) and hierarchical cluster analysis (HCA) were performed using Statistica v.13.3 (StatSoft, Tulsa, OK, USA). Prior to PCA, the Bartlett’s sphericity test was conducted, and the Kaiser-Meyer-Olkin Measure of Sampling Adequacy index (KMO) was examined. In the simple model, for each compound tested (1–4), the cell lines were the cases, and the different concentrations of the compound were the parameters. This was followed by a PCA model in which the cell lines were the parameters, and the compounds (at different concentrations) were the cases. All PCA models were based on a correlation matrix. Hierarchical cluster analysis (CA) based on standardized data was performed using Ward’s method and Euclidean distance. The results were grouped based on Mojena’s rule.

[2] = system: A375 malignant melanoma cells; test: LDH cytotoxicity assay, A375; type: cell-based; settings: Homo sapiens, A-375, LDH test, read-out: Cytotoxic activity expressed as IC50
Method: as §1, §2, §3

[3] = system: 8505C undifferentiated thyroid carcinoma cells; test: LDH cytotoxicity assay, 8505C; type: cell-based; settings: Homo sapiens, LDH test, read-out: Cytotoxic activity expressed as IC50
Method: as §1, §2, §3

[4] = system: PC3 metastatic prostate carcinoma cells; test: LDH cytotoxicity assay, PC3; type: cell-based; settings: Homo sapiens, LDH test, read-out: Cytotoxic activity expressed as IC50
Method: as §1, §2, §3

[5] = system: Caco-2 colon adenocarcinoma cells; test: LDH cytotoxicity assay, Caco-2; type: cell-based; settings: Homo sapiens, LDH test, read-out: Cytotoxic activity expressed as IC50
Method: as §1, §2, §3

[6] = system: FTC133 follicular thyroid carcinoma cells; test: LDH cytotoxicity assay, FTC133; type: cell-based; settings: Homo sapiens, FTC-133, LDH test, read-out: Cytotoxic activity expressed as IC50
Method: as §1, §2, §3

[7] = system: WM793 primary melanoma cells; test: LDH cytotoxicity assay, WM793; type: cell-based; settings: Homo sapiens, LDH test, read-out: Cytotoxic activity expressed as IC50
Method: as §1, §2, §3

[8] = system: DU-145 metastatic prostate carcinoma cells; test: LDH cytotoxicity assay, DU-145; type: cell-based, human; settings: Homo sapiens, LDH test, read-out: Cytotoxic activity expressed as IC50
Method: as §1, §2, §3

[9] = LDH cytotoxicity assay, HaCaT; type: cell-based, human; settings: human, HaCaT normal keratinocytes, HaCaT normal cells, LDH test, read-out: Cytotoxic activity expressed as IC50; for IC50 at 24 h: 24 h incubation; for IC50 at 48 h: 48 h incubation
Method: as §1, §2, §3

[10] = system: human cancer and normal cell lines; test: Cytotoxicity screening across the whole cell line panel; type: cell-based; settings: all cell lines tested, 5–100 μg/mL, 24 and 48 h
Method: The cytotoxic activity was tested on human cancer and normal cell lines, grouped in several panels: skin (malignant melanoma HTB-140, malignant melanoma A375, melanoma WM793, and normal keratinocytes HaCaT), prostate (prostate carcinoma DU-145, prostate carcinoma PC3, and prostate epithelial cells PNT2), thyroid (thyroid carcinoma FTC133, thyroid carcinoma, undifferentiated 8505C), gastrointestinal panel (hepatocellular carcinoma HepG2, colon adenocarcinoma Caco-2, and colon adenocarcinoma HT29), and single line of lung carcinoma A549. […]
as §2, with “Then the tested compounds (5–100 μg/mL) were added and incubated for 24 and 48 h.” left out, “Each experiment was conducted in triplicate. Doxorubicin was used as a reference cytostatic.” left out
The results were expressed as mean (±SD). Data were analyzed using Statistica v.13.3 (StatSoft, Tulsa, OK, USA). The IC50 values were calculated using OriginPro 2020b (64-bit) 9.7.5.184 (Academic) (OriginLab Corporation, Northampton, MA, USA). […]

[11] = system: HT29 colon adenocarcinoma cells; test: LDH cytotoxicity assay, HT29; type: cell-based; settings: Homo sapiens, HT-29, LDH test, read-out: Cytotoxic activity expressed as IC50
Method: as §1, §2, §3

[12] = system: A549 lung carcinoma cells; test: LDH cytotoxicity assay, A549; type: cell-based, human; settings: Homo sapiens, LDH test, read-out: Cytotoxic activity expressed as IC50
Method: as §1, §2, §3

[13] = system: HepG2 hepatocellular carcinoma cells; test: LDH cytotoxicity assay, HepG2; type: cell-based; settings: Homo sapiens, LDH test, read-out: Cytotoxic activity expressed as IC50
Method: as §1, §2, §3

[14] = system: HTB-140 malignant melanoma cells; test: LDH cytotoxicity assay, HTB-140; type: cell-based; settings: Homo sapiens, LDH test, read-out: Cytotoxic activity expressed as IC50
Method: as §1, §2, §3

[15] = A549, 24 h, A549, 24 h incubation
[16] = A549, 48 h, A549, 48 h incubation

Row | Compound | IC50 at 24 h [1] | IC50 at 48 h [1] | IC50 ([2]; A375, 24 h incubation) | IC50 ([2]; A375, 48 h incubation) | IC50 ([3]; 24 h incubation) | IC50 ([3]; 48 h incubation) | IC50 ([4]; PC3, 24 h incubation) | IC50 ([4]; PC3, 48 h incubation) | IC50 ([5]; Caco-2, 24 h incubation) | IC50 ([5]; Caco-2, 48 h incubation) | IC50 ([6]; FTC133, 24 h incubation) | IC50 ([6]; FTC133, 48 h incubation) | IC50 ([7]; WM793, 24 h incubation) | IC50 ([7]; WM793, 48 h incubation) | IC50 ([8]; DU-145, 24 h incubation) | IC50 at 24 h [9] | IC50 ([11]; HT29, 24 h incubation) | IC50 [12, 15] | IC50 ([13]; HepG2, 24 h incubation) | IC50 ([14]; HTB-140, 24 h incubation) | other results
1 | CC1(C)CC[C@]2(C(=O)O)CC[C@]3(C)C(=CC[C@@H]4[C@@]5(C)CC[C@H](O[C@@H]6O[C@H](CO)[C@@H](O)[C@H](O[C@@H]7O[C@H](CO)[C@@H](O)[C@H](O)[C@H]7O)[C@H]6O)[C@@](C)(CO)[C@@H]5CC[C@]43C)[C@@H]2C1 [Compound 1] | 51.1 µM and 40.7 µg/mL | 42.8 µM and 34.1 µg/mL | 22.6 µM and 18 µg/mL | 16 µM and 12.7 µg/mL | 45.1 µM and 35.9 µg/mL | 32.4 µM and 25.8 µg/mL | 73.6 µM and 58.6 µg/mL | 44.2 µM and 35.2 µg/mL | 27.1 µM and 21.6 µg/mL | 24.2 µM and 19.3 µg/mL | 30.8 µM and 24.5 µg/mL | 17.1 µM and 13.6 µg/mL | 34.6 µM and 27.6 µg/mL | 21.6 µM and 17.2 µg/mL | 20.7 µM and 16.5 µg/mL | 50.8 µM and 40.4 µg/mL | 35.7 µM and 28.4 µg/mL | 18.7 µM and 14.9 µg/mL | 16.6 µM and 13.2 µg/mL | 33 µM and 26.2 µg/mL | IC50 ([8]; DU-145, 48 h incubation): 14.7 µM and 11.7 µg/mL; IC50 at 48 h [9]: 33.9 µM and 27 µg/mL; Overall cytotoxic activity across the panel, in words [10]: exhibited activity against all cell lines tested; IC50 ([11]; HT29, 48 h incubation): 31.4 µM and 25 µg/mL; IC50 [12, 16]: 14.8 µM and 11.8 µg/mL; IC50 ([13]; HepG2, 48 h incubation): 13.6 µM and 10.8 µg/mL; IC50 ([14]; HTB-140, 48 h incubation): 22.8 µM and 18.2 µg/mL
2 | CC1(C)CC[C@]2(C(=O)O)CC[C@]3(C)C(=CC[C@@H]4[C@@]5(C)CC[C@H](O)[C@@](C)(CO)[C@@H]5CC[C@]43C)[C@@H]2C1 [Compound 4, hederagenin] | 195 µM and 92 µg/mL | 159 µM and 75.1 µg/mL | > 100 µg/mL | > 100 µg/mL | > 100 µg/mL | > 100 µg/mL | > 100 µg/mL | 164 µM and 77.7 µg/mL | 191 µM and 90.1 µg/mL | 158 µM and 74.9 µg/mL | > 100 µg/mL | > 100 µg/mL | > 100 µg/mL | > 100 µg/mL | 109 µM and 51.5 µg/mL | > 100 µg/mL | > 100 µg/mL | > 100 µg/mL | > 100 µg/mL | > 100 µg/mL | IC50 ([8]; DU-145, 48 h incubation): 42.9 µM and 20.3 µg/mL; IC50 at 48 h [9]: > 100 µg/mL; IC50 ([11]; HT29, 48 h incubation): 191 µM and 90.3 µg/mL; IC50 [12, 16]: 208 µM and 98.2 µg/mL; IC50 ([13]; HepG2, 48 h incubation): > 100 µg/mL; IC50 ([14]; HTB-140, 48 h incubation): > 100 µg/mL
3 | COc1cccc2c1C(=O)c1c(O)c3c(c(O)c1C2=O)C[C@@](O)(C(=O)CO)C[C@@H]3O[C@H]1C[C@H](N)[C@H](O)[C@H](C)O1 [DOX, doxorubicin] | 2.01 µM and 1.09 µg/mL |  | 790 nM and 0.43 µg/mL |  | > 40 µg/mL |  | > 40 µg/mL |  | 5.43 µM and 2.95 µg/mL |  | 8.56 µM and 4.65 µg/mL |  | > 40 µg/mL |  | 4.53 µM and 2.46 µg/mL | 7.75 µM and 4.21 µg/mL | 2.06 µM and 1.12 µg/mL | 2.01 µM and 1.09 µg/mL | 2.05 µM and 1.11 µg/mL | 9.03 µM and 4.91 µg/mL | 
4 | CC1(C)CC[C@]2(C(=O)O[C@@H]3O[C@H](CO)[C@@H](O)[C@H](O)[C@H]3O)CC[C@]3(C)C(=CC[C@@H]4[C@@]5(C)CC[C@H](O)[C@@](C)(CO)[C@@H]5CC[C@]43C)[C@@H]2C1 [Compound 3, 28-O-β-D-glucopyranosyl hederagenin ester] | 84.8 µM and 53.8 µg/mL | 59.5 µM and 37.8 µg/mL | 73.5 µM and 46.7 µg/mL | 58 µM and 36.8 µg/mL | > 100 µg/mL | > 100 µg/mL | > 100 µg/mL | 118 µM and 74.8 µg/mL | 42.6 µM and 27 µg/mL | 38 µM and 24.2 µg/mL | > 100 µg/mL | > 100 µg/mL | > 100 µg/mL | > 100 µg/mL | 56.8 µM and 36.1 µg/mL | 91.5 µM and 58.1 µg/mL | 69.2 µM and 44 µg/mL | 150 µM and 95.3 µg/mL | 127 µM and 80.5 µg/mL | > 100 µg/mL | IC50 ([8]; DU-145, 48 h incubation): 42.6 µM and 27 µg/mL; IC50 at 48 h [9]: 68.2 µM and 43.3 µg/mL; IC50 ([11]; HT29, 48 h incubation): 60 µM and 38.1 µg/mL; IC50 [12, 16]: 73.2 µM and 46.5 µg/mL; IC50 ([13]; HepG2, 48 h incubation): 107 µM and 68 µg/mL; IC50 ([14]; HTB-140, 48 h incubation): 155 µM and 98.2 µg/mL
